T1: GST-DREAM (Homo sapiens, UniProt Q9Y2W7, Y130A)
T1 construct: gene KCNIP3
T1 sequence (Q9Y2W7 1-256 Y130A): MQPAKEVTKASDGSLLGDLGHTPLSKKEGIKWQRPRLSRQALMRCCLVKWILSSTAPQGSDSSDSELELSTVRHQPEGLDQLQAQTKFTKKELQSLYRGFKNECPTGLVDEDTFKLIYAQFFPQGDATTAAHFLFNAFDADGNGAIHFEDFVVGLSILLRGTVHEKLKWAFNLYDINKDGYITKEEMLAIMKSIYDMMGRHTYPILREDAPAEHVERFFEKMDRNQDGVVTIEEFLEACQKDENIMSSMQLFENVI

T2: His-DREAM (71–256); rDREAM (Homo sapiens, UniProt Q9Y2W7)
T2 construct: gene KCNIP3; residues 71-256, His-tagged, recombinant, immobilized on CM4 sensor chip; dimer and monomer in Ca2+
T2 sequence (Q9Y2W7 71-256): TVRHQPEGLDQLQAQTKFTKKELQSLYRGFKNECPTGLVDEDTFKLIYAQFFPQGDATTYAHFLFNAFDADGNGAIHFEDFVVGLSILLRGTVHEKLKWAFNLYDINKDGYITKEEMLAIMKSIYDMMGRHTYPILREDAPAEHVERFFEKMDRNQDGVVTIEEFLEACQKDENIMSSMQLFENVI

T3: GST-DREAM (Homo sapiens, UniProt Q9Y2W7, Y118A)
T3 construct: gene KCNIP3
T3 sequence (Q9Y2W7 1-256 Y118A): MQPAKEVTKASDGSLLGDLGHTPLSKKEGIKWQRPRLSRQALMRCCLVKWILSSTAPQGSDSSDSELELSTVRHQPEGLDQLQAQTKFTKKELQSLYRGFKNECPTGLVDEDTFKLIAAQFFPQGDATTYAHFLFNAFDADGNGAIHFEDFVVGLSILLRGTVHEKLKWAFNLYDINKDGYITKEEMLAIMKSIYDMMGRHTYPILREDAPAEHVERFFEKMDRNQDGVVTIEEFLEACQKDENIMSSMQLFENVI


Key:
GST-DREAM [1] = target: T1, GST-DREAM; test: SPR, immobilized protein; format: binding; conditions: CM5 chip; compared with wild type
[2] = target: T2, His-DREAM (71–256); rDREAM; test: SPR, immobilized protein; conditions: CM4 chip; binding depends on Ca2+ and Mg2+
GST-DREAM [3] = target: T3, GST-DREAM; test: SPR, immobilized protein; format: binding; conditions: CM5 chip; compared with wild type
[4] = target: the molecule itself; test: native gel or EMSA; 10% blue native (nondenaturing, nonreducing) polyacrylamide gel; His-DREAM 71-256 (50 ng, 100 nM) with 5 mM CaCl2, incubated 10 min at RT with 10, 30, 100 and 300 nM IQM-PC330; immunodetection with anti-DREAM antibody; dimer and monomer bands

Molecule	SPR, immobilized protein (GST-DREAM [1])	KD [2]	SPR, immobilized protein (GST-DREAM [3])	stoichiometry N [4]
CCCCc1ccc(-c2ccc(NC(=O)Cc3ccc(Cl)c(Cl)c3)c(C(=O)O)c2)cc1 [compound 36, 2-[2-(3,4-Dichlorophenyl)acetylamino]-5-(4’-n-butylphenyl)benzoic acid]	Tyr118Ala or Tyr130Ala showed a substantial decrease in the binding of the two ligands	3.9 ± 0.4 · 10^−5 M	Tyr118Ala or Tyr130Ala showed a substantial decrease in the binding of the two ligands	
CCCCc1ccc(-c2ccc(C(=O)O)c(NC(=O)Cc3ccc(Cl)c(Cl)c3)c2)cc1 [compound 19, 2-[2-(3,4-Dichlorophenyl)acetylamino]-4-(4′-n-butylphenyl)benzoic acid]	Tyr118Ala or Tyr130Ala showed a substantial decrease in the binding of the two ligands	2.8 ± 0.3 · 10^−5 M	Tyr118Ala or Tyr130Ala showed a substantial decrease in the binding of the two ligands	
Recombinant His-tagged soluble DREAM protein (aa 71–256) (domain or fragment, UniProt Q9Y2W7 71-256, looked up, DREAM (downstream regulatory element antagonist modulator; KChIP3, calsenilin), residues 71-256; Seen as dimer and monomer on blue native gels with 5 mM CaCl2; also called rDREAM; recombinant DREAM (amino acids 71–256); source: recombinant protein) TVRHQPEGLDQLQAQTKFTKKELQSLYRGFKNECPTGLVDEDTFKLIYAQFFPQGDATTYAHFLFNAFDADGNGAIHFEDFVVGLSILLRGTVHEKLKWAFNLYDINKDGYITKEEMLAIMKSIYDMMGRHTYPILREDAPAEHVERFFEKMDRNQDGVVTIEEFLEACQKDENIMSSMQLFENVI				2

— paper PMC6514012, “Targeting the neuronal calcium sensor DREAM with small-molecules for Huntington’s disease treatment” (Scientific Reports, 2019)
